The subject of one data set is CR3 (CD11b). Put plainly: CR3 (CD11b) surface expression on iPSC-derived microglia. The settings on record: Aβ 5 µg/mL, 60 min, 37 °C. Type of data set: cell-based, human.
A further data set has as its target T1, CR4 I-domain (Homo sapiens, UniProt P20702, I333G).
T1 construct: made in house
T1 sequence (P20702 165-339 I333G limits assumed): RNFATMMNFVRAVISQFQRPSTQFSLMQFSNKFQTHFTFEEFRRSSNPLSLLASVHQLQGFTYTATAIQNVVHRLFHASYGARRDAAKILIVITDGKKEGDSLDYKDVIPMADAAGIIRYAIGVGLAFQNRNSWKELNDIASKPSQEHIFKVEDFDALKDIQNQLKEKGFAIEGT
The data set can be described thus: SPR, CR4 I domain binding to immobilized Aβ or iC3b. Conditions: even at high concentrations of the CR4 I-domain (up to 10000 nM). The method, then: (§1) SPR assays were performed using CM-4 chips (cat no. 50-105-5323, Cytiva) and run in the BIAcore 3000 instrument (GE Health Care). As described, the chip surfaces were coupled with monomeric Aβ, aggregated Aβ, or iC3b using an amine-coupling chemistry method. A reference surface was prepared by coupling the surfaces with ethanolamine rather than protein. The CR3 and CR4 I domains were stabilized in the activated conformation by mutation of a C-terminal isoleucine residue to glycine and prepared as described earlier. […] The prepared solutions were injected over the surfaces; the contact time (tc) was 180 s, and the following dissociation phase time was 400 s. […] The distribution P (kd, KD) was calculated using the discretization of the equation:1 STotal=∫KDminKDmax∫koffminkoffmaxSkoff,KD,canalyte,tPkoff,KDdkoffdKD where S is the SPR signal. […] This was done through a global fit to the association and dissociation traces at the analyte concentrations (canalyte) mentioned above. The algorithm used Tikhonov regularization as described[44] at a confidence level of p = 0.95 to determine the most parsimonious distribution consistent with the data, showing only features essential to fit the data.
In general terms: Surface plasmon resonance follows binding to a sensor surface in real time, without labels.

The test system of a further data set is CR4 (CD11c). The data set can be described thus: CR4 (CD11c) surface expression on iPSC-derived microglia. The settings on record: Aβ 5 µg/mL, 60 min, 37 °C. Type of data set: cell-based, human.
Another data set concerns the target CR3 I-domain. The data set can be described thus: SPR, CR3 I domain binding to immobilized Aβ or iC3b. More on the design: species or system human. The settings on record: pH 7.4, 1 mM MgCl2; EVILFIT 2D distribution. The method, then: as §1
The test system of another data set is Aβ. The data set can be described thus: FDM-NTA of synthetic Aβ in PBS, QD-antibody conjugates. The settings on record: PBS pH 7.4; detected by aducanumab biosimilar; A-Aβ value on average. It counts as binding, human. As to the method: QD Ab (Ab) coupling was performed using SiteClick Qdot 655 Ab Labeling Kit (no. S10453; Molecular Probes) according to manufactures instructions. In brief, Ab, either “Aducanumab biosimilar” human IgG1,κ to aggregated Aβ (cat. no. PX-TA1335, lot. no. 040721-A01, ProteoGenix), or “Isotype control” human IgG1,κ (cat.no. HG1K, lot.no. MA14OC2803, SinoBiologicals) was concentrated in Ab preparation buffer to a concentration of 2 mg/mL or above. The buffer was simultaneously changed to 0.05 M Tris, pH 7.0. Next, carbohydrates on the Ab were modified by incubation with β-galactosidase for 4 h at 37 °C. […]
Samples for NTA were analyzed using a NanoSight NS300 system (Malvern Panalytical). The system was configured with a 405-nm laser, a high-sensitivity scientific complementary metal–oxide–semiconductor Orca Flash 2.8/Hamamatsu C11440 camera (Malvern Panalytical), a syringe pump, and for fluorescence measurements, a 650-nm long-pass filter was used. […] The videos were collected and analyzed using NanoSight software (version 3.3 and 3.4 with a concentration upgrade; Malvern). […] The camera level was set for both scattering and fluorescence mode to a maximum of 16. […] Only samples analyzed with the same detection threshold were compared. Pure protein was analyzed in PBS/EDTA with and without a 1:20,000 dilution of anti-Aβ (Aducanumab bios.) or isotype-matched Ab-QD reporters. […]

The subject of a further data set is iPSC-derived microglia. Put plainly: Lysosomal activity of iPSC-derived microglia (LysoTracker). Type of data set: cell-based, human. The settings on record: Aβ 5 µg/mL, 60 min, 37 °C.

The term Kd denotes the free concentration of one partner at which half of the binding sites on the other are occupied at equilibrium, for simple one-to-one binding. Usually koff stands for a measure of how fast the partners let go of each other.

Method for CR3 (CD11b): (§2) For microglial differentiation, the human induced pluripotent stem cell (iPSC) line BIHi043A-XM001 was used[56]. Cells were cultured on Matrigel™ (cat. no. 356234, Corning)-coated culture plates in Essential 8™ Flex Medium (cat. no. A2858501, Gibco). The culture medium was changed daily, and cells were passaged in clusters every 3–4 days at a density of 80% using 0.5 mM EDTA/PBS. iPSCs were differentiated into microglia using the protocol described[72]. First, iPSCs were differentiated into hematopoietic progenitors (HP) using STEMdiff™ Hematopoietic Kit (cat. No. 05310, Stem Cell Technologies). On Day −1, iPSCs with a 70–80% density were passaged with ReLeSR™ (cat. no. 05872, Stem Cell Technologies) into E8 flex containing Matrigel-coated 6-well plates. Clusters of 100 cells were seeded at the desired density of 50–100 per well. At Day 0, in wells with 40–80 clusters, the E8 flex medium was replaced with 2 mL medium A. On Day 2, 1 mL of medium A was added to the well. On Day 3, the medium was removed and replaced with 2 mL Medium B. On Days 5, 7, and 9, 1 mL of medium B was added to the well. […] The adherent cells were gently washed off to increase the yield using a 5 mL serological pipette. […] On Days 13, 15, 17, 19, and 21, 1 mL of microglia differentiation medium was added to the well. […] On Days 38–42, the microglia were ready for functional studies. […]
Method for CR4 (CD11c): as §2

Consider “M-Aβ: Unaggregated and mainly monomeric synthetic human Aβ”, for which the “CD11b (CR3) surface expression” value with CR3 (CD11b) is “not affected”. In the data set with CR4 I-domain, the “Interaction with CR4 I-domain” value is on record as “no interaction”. Besides, the “CD11c (CR4) surface expression” value in the data set on CR4 (CD11c) was “KIM127 Ab did not influence the CD11c expression”. On CR3 I-domain, this substance came in with a Kd of around 79 µM and a koff of 0.11 s⁻¹. In addition, in the data set on Aβ, the “Particles above 600 nm” value is on record as “less than 0.5 × 10^6 particles/mL”. Besides, in the data set on iPSC-derived microglia, the “Lysosomal activity of iMGs” value is “no such ability”.

Source of the values: article PMC10858199, “Amyloid-β aggregates activate peripheral monocytes in mild cognitive impairment” (Nature Communications, 2024).
